Laboratory results from PMC7331731, “Activity of vitamin D receptor agonists against dengue virus” (Scientific Reports, 2020).

Columns and labels:
[1] = test system: DENV infected monocytic U937 cells or hepatic Huh-7 cells; design: method as in PMID 22387385; conditions: U937 or Huh-7 cells; cited from earlier work
CYP27B1 = assay: VDR-regulated gene expression by qRT-PCR, CYP27B1; type: cell-based, human; conditions: 20 µM, 24 h, HEK293T/17, vs actin and 0.02% DMSO
Procedure: (§1) HEK293T/17 cells were incubated with either 10 µM of VDR agonists or 20 μM of commercial VDR agonist EB1089 (Tocris Cookson Ltd., Bristol, UK) for 24 h. Subsequently, the treated cell lysate was collected to determine the mRNA levels of the VDR gene as well as genes regulated by VDR. Total RNA was extracted and cDNA was synthesized as described above. Amplification was performed using specific primers, namely VDR-F: 5′-[…]-3′, VDR-R: 5′-AGTGGCGTCGGTTGTCCTT-3′, CYP27B1-F: 5′-[…]-3′, CYP27B1-R 5′-[…]-3′, CYP24A1-F: 5′-[…]-3′ and CYP24A1-R 5′-[…]-3′. The mRNA expression was normalized against β-actin and DMSO control-treated cells, respectively according to the following equation: ΔΔCt = ΔCt (gene)—ΔCt (DMSO). Experiments were performed independently in triplicate with triplicate real-time PCR.

CYP24A1 = assay: VDR-regulated gene expression by qRT-PCR, CYP24A1; type: cell-based, human; conditions: 20 µM, 24 h, HEK293T/17, vs actin and 0.02% DMSO
Procedure: as §1

DENV 2 [2] = assay: Level of DENV 2 infection by flow cytometry (HEK293T/17 cells); type: cell-based, dengue virus; conditions: for level of infection: HEK293T/17, vs 0.01% DMSO control; for level of infection, treatment at 6 and 12 h post-infection: read at 24 h.p.i.
Procedure: (§2) HEK293T/17 cells were cultured on 6-well plates until 70% confluence was reached under standard conditions. The cells were mock-infected or infected with DENV 2 at a multiplicity (MOI) of 5 for 2 h. After infection, the medium was removed and the infected cells were incubated with appropriate concentrations of the VDR agonists until 24 h.p.i., in parallel with DMSO treated control cells. Experiments were performed independently triplicate.
(§3) For time course experiments, under conditions of pre-infection treatment, HEK293T/17 cells were pre-treated with an appropriate concentration of VDR agonists for 1, 3 or 6 h before infection, followed by incubation in complete medium. For treatment post-infection, infected cells were treated with VDR agonists at 0, 1, 3, 6 and 12 h.p.i. The infected cells and supernatant for both pre- and post-treated samples were collected at 24 h.p.i. Experiments were performed independently triplicate.
HEK293T/17 cells were mock-infected or infected with DENV 2 at MOI 5 for 2 h, followed by treatment with the appropriate concentration of VDR agonists. At 24 hpi, the treated cells were harvested and Fc receptors were blocked with 10% goat serum (Gibco BRL, Gaithersburg, MD) for 30 min at 4 °C. The cells were washed with 1% BSA in 1X PBS/IFA (150 mM NaCl, 50 mM NaH2PO4, 50 m M Na2HPO4, pH to 7.4) and centrifuged at 6,000 g for 5 min. Then, the cells were fixed with 4% paraformaldehyde in 1X PBS/IFA at room temperature in the dark for 20 min, followed by the washing. Cell membrane permeabilization was performed using 0.2%Triton-X in 1X PBS/IFA for 10 min in the dark followed by overnight incubation with a 1:150 dilution of a pan-specific mouse monoclonal anti-dengue E protein antibody (HB114[44]). Cells were subsequently incubated for 1 h in the dark with a 1:40 dilution of a fluorescein isothiocyanate (FITC)-conjugated goat anti-mouse IgG antibody (KPL, Guilford, UK) with washing between each step 1% BSA/PBS-IFA. Finally, the cells were analyzed by flow cytometry on a BD FACSCalibur cytometer (Becton Dickinson, BD Biosciences, San Jose, CA) using the CELLQuest software. All experiments were performed independently in triplicate.

DENV 2 [3] = assay: DENV 2 virus titer in supernatant by standard plaque assay (infected HEK293T/17 cells); type: cell-based, dengue virus; conditions: for virus titer, treatment at 6 and 12 h post-infection: read at 24 h.p.i.; for EC50: HEK293T/17 cells, DENV 2 MOI 5, post-infection treatment, virus titer at 24 h by plaque assay
Procedure: Human embryonic kidney HEK293T/17 (ATCC No. CRL-11268) and human hepatocellular HepG2 (ATCC No. HB-8065) cells were cultured in complete medium, composed of Dulbecco’s modified Eagle medium (DMEM; Gibco BRL) supplemented with 10% heat-inactivated fetal bovine serum (FBS) at 37 °C with 5% CO2. Dengue virus serotype 2 (DENV 2) strain 16681, DENV 1 (strain 16007), DENV 3 (strain 16562), DENV 4 (strain 1036), ZIKV (strain SV0010/15) and JEV (strain BJ1) were all propagated in the Aedes albopictus cell line C6/36 (ATCC No. CRL-1660). Viral progenies in the supernatant were collected and centrifuged at 1,000g to remove cell debris. The virus stocks were kept at − 80 °C until used. Virus titers were determined by standard plaque assay on LLC-MK2 cells (ATCC No. CCL-7).
as §2, §3

VDR = assay: VDR-regulated gene expression by qRT-PCR, VDR; type: cell-based, human; conditions: 20 µM, 24 h, HEK293T/17, vs actin and 0.02% DMSO
Procedure: as §1

DENV 2 [4] = assay: Level of DENV 2 infection in HepG2 cells by flow cytometry; type: cell-based, dengue virus; conditions: 10 μM, 24 h, DENV 2 MOI 5
Procedure: Given that HEK293T/17 cells are not representative of a DENV target tissue, the antiviral activity of the VDR agonists was evaluated in cells representative of a primary target cell. For this reason, HepG2 cells were infected with DENV 2, followed by treatment with 10 μM of the five effective VDR agonists (ZD-1, ZD-2, ZD-3, ZD-5, and ZD-6) for 24 h, after which the level of infection was determined by flow cytometry.
Figure 5 Antiviral activity of VDR agonists against DENV infection on HepG2 cells. HepG2 cells were mock-infected or infected with DENV 2 at MOI 5 for 2 h, followed by the treatment with 10 μM of ZD-1, ZD-2, ZD-3, ZD-5 and ZD-6 for 24 h.p.i. The treated cells were collected and level of infection determined by flow cytometry. p value; *< 0.05, **< 0.01, ***< 0.001 for significance. The experiment was performed independently in triplicate.
HEK293T/17 cells were mock-infected or infected with DENV 2 at MOI 5 for 2 h, followed by treatment with the appropriate concentration of VDR agonists. At 24 hpi, the treated cells were harvested and Fc receptors were blocked with 10% goat serum (Gibco BRL, Gaithersburg, MD) for 30 min at 4 °C. […] Finally, the cells were analyzed by flow cytometry on a BD FACSCalibur cytometer (Becton Dickinson, BD Biosciences, San Jose, CA) using the CELLQuest software. […]

ZIKV (strain SV0010/15) = assay: Virus titer by plaque assay, ZIKV; type: cell-based; conditions: 10 μM, 24 h, HEK293T/17, MOI 10
Procedure: (§4) For viruses other than DENV 2, HEK293T/17 cells were infected with DENV 1 (strain 16007), DENV 3 (strain 16562), DENV 4 (strain 1036) and ZIKV (strain SV0010/15) at MOI 10 and with JEV (strain BJ1) at MOI 1. At 2 h.p.i., the virus was removed and the cells were incubated with 10 μM of VDR agonist (ZD-6) in complete medium for 24 h, after which the supernatant was collected, and the virus titer was determined by standard plaque assay. Experiments were performed independently triplicate.

JEV (strain BJ1) = assay: Virus titer by plaque assay, JEV; type: cell-based; conditions: 10 μM, 24 h, HEK293T/17, MOI 1
Procedure: as §4

DENV 4 (strain 1036) = assay: Virus titer by plaque assay, DENV 4; type: cell-based, dengue virus; conditions: 10 μM, 24 h, HEK293T/17, MOI 10
Procedure: as §4

[5] = test system: DENV 1, 3, 4, JEV and ZIKV; assay: Activity against other flaviviruses, plaque assay (all viruses together); type: cell-based; conditions: 10 μM, 24 h, HEK293T/17, range over DENV 1, 3, 4, JEV, lowest for JEV and ZIKV
Procedure: as §4

DENV 1 (strain 16007) = assay: Virus titer by plaque assay, DENV 1; type: cell-based, dengue virus; conditions: 10 μM, 24 h, HEK293T/17, MOI 10
Procedure: as §4

DENV 3 (strain 16562) = assay: Virus titer by plaque assay, DENV 3; type: cell-based, dengue virus; conditions: 10 μM, 24 h, HEK293T/17, MOI 10
Procedure: as §4

[6] = 20 μM, 24 h.p.i., HEK293T/17, plaque assay
[7] = 10 µM, 24 h, HEK293T/17, plaque assay

SMILES	level of infection (DENV 2 [2]; 10 µM, 24 h)	CC50 (HEK293T/17 cells) [µM]	reduction of virus production (DENV 2 [3]; [7])	EC50 (DENV 2 [3]) [µM]	further results
C=C1/C(=C\C=C2/CCC[C@]3(C)[C@@H]([C@H](C)CCCC(C)(C)O)CC[C@@H]23)C[C@@H](O)C[C@@H]1O [1,25(OH)2D3, 1,25-dihydroxyvitamin D3]	–	–	–	–	numbers of infected cells [1]: decreased numbers of infected cells
C=C1/C(=C\C=C2/CCC[C@]3(C)[C@@H]([C@H](C)/C=C/C=C/C(O)(CC)CC)CC[C@@H]23)C[C@@H](O)C[C@@H]1O [EB1089, reference compound]	–	–	–	–	transcriptional level of CYP27B1 (CYP27B1): significantly up regulated; transcriptional level of CYP24A1 (CYP24A1): significantly up regulated; levels of infected cells (DENV 2 [2]; 20 μM, 24 h.p.i., HEK293T/17): significantly reduced; reduction of viral production (DENV 2 [3]; [6]): approximately 2 Log10; viral yield (DENV 2 [3]; [6]): significantly reduced; transcriptional level of VDR (VDR): significantly up regulated
O=C1C2CCCN2C(c2ccco2)N1c1ccc([N+](=O)[O-])cc1 (stereo not drawn) [ZD-1]	highly significant reductions	260	2-3 Log10	8.74	level of infection in HepG2 cells (DENV 2 [4]): modest; level of infection, treatment at 6 and 12 h post-infection (DENV 2 [2]; 10 µM): significant reductions; virus titer, treatment at 6 and 12 h post-infection (DENV 2 [3]; 10 µM): significant reductions
COc1cc(C2N(c3ccc([N+](=O)[O-])cc3)C(=O)C3CCCN32)ccc1O (stereo not drawn) [ZD-2]	highly significant reductions	314	2-3 Log10	11.8	–
CSCCC(N)C(=O)Oc1ccc(C2N(c3ccc([N+](=O)[O-])cc3)C(=O)C3CCCN32)cc1.Cl (stereo not drawn) [ZD-3]	highly significant reductions	394	–	7.47	–
CSCCC(NC(=O)OC(C)(C)C)C(=O)Nc1ccc(C2N(c3ccc([N+](=O)[O-])cc3)C(=O)C3CCCN32)cc1 (stereo not drawn) [ZD-4]	–	520	over 1 Log10	33.5	infection levels reduced by (DENV 2 [2]; 10 µM, 24 h, HEK293T/17): approximately 50%
COc1ccc(CC2N(c3ccc([N+](=O)[O-])cc3)C(=O)C3CCCN32)cc1OC (stereo not drawn) [ZD-5]	highly significant reductions	439	2-3 Log10	8.46	level of infection, treatment at 6 and 12 h post-infection (DENV 2 [2]; 10 µM): significant reductions; virus titer, treatment at 6 and 12 h post-infection (DENV 2 [3]; 10 µM): significant reductions
O=C1C2CCCN2C(c2ccc(O)cc2)N1c1ccc([N+](=O)[O-])cc1 (stereo not drawn) [ZD-6]	highly significant reductions	277	2-3 Log10	11.3	virus production, ZIKV (ZIKV (strain SV0010/15)): significantly inhibited; virus production, JEV (JEV (strain BJ1)): significantly inhibited; virus production, DENV 4 (DENV 4 (strain 1036)): significantly inhibited; magnitude of inhibition of virus production [5]: 1–3 Log10; virus production, DENV 1 (DENV 1 (strain 16007)): significantly inhibited; virus production, DENV 3 (DENV 3 (strain 16562)): significantly inhibited
CSCCC(NC(=O)OC(C)(C)C)C(=O)Oc1ccc(C2N(c3ccc([N+](=O)[O-])cc3)C(=O)C3CCCN32)cc1 (stereo not drawn) [ZD-20]	no significant reduction	908	–	152	effect on DENV 2 titer in the supernatant (DENV 2 [3]; [7]): no significant effect
